These results are taken from paper PMC11859031, “Assessment of the In Vitro Biological Activities of Schiff Base-Synthesized Copper Oxide Nanoparticles as an Anti-Diabetic, Anti-Alzheimer, and Anti-Cancer Agent” (Pharmaceutics, 2025).

Experiment [1] can be described thus: Iron reducing power (IRP). Particulars: samples at 100 µg/mL; mean ± SE, n = 3. The procedure:
ammonium molybdate. Methanol (80%) was used in place of the sample for the blank. The tubes were sealed and incubated in a boiling water bath for 90 minutes.
After cooling to room temperature, the absorbance was measured at 695 nm against the blank. […] was used at the same concentrations as a standard. The antioxidant capacity was expressed as mg gallic acid equivalent per gram weight.
The iron reducing power was determined as µg/mL using the method proposed by Oyaizu (1986). In brief, 1ml of the tested sample (at each concentration) was combined with 1mL of 200mM sodium phosphate buffer (pH 6.6) and 1mL of 1% potassium ferricyanide. […] The absorbance was measured at 700nm against a blank prepared without the sample. […] A high absorbance at 700nm indicates a higher reducing power in the reaction mixture.
The 1,1-Diphenyl-2-picryl-hydrazyl (DPPH) radical scavenging activities were evaluated using the method described by Rahman et al. An antioxidant substance capable of donating a hydrogen atom to a solution containing DPPH- can reduce the stable free radical, causing the solution to change color from violet to pale yellow.
The remaining DPPH- radical was quantified by measuring the intensity of a light-purple colored DPPH methanol solution in the visible range at 518 nm using a spectroscopic method. […]

In experiment [2] the target is bovine serum albumin (BSA) (Bos taurus, UniProt P02769). In words: Inhibition of protein denaturation (anti-arthritic). The conditions noted are these: read-out: Protein Denaturation Inhib. (%). The procedure: 3.5. Anti-arthritic activity
In the anti-arthritic activity study, this assay involved determining the percentage of […]
anti-inflammatory drug, as prepared according to Meera et al. The protein denaturation percentage was measured by mixing 0.5mL of the test control solution, prepared by combining 0.45 mL of bovine serum albumin (BSA) (5% w/v aqueous solution) with 0.05 mL of distilled water. Then, 0.05 mL of the test solution was added to 0.45 mL of distilled water to form the product control (0.5 mL). The […]
pH value in all prepared solutions was adjusted to 6.3 using HCl (1N). All the samples were incubated at 37 °C for 20 min, and the temperature was then increased to 57 °C, maintaining the samples at that degree for 3 min. After cooling, 2.5 mL of phosphate buffer was added to the prepared solutions. The absorbance was […]
protein denaturation inhibition can be calculated. Proteinase inhibitory activity was assessed by combining the test sample (1 mL) with a reaction mixture containing 0.06 mg trypsin dissolved in 1 mL of 20 mM Tris HCl buffer (pH 7.4). The mixture was then incubated for 5 minutes at 37°C, followed by the addition of 1 mL of casein (0.8% w/v). […] The cloudy suspension was then centrifuged, and the absorbance of the supernatant was measured at 210 nm against buffer as the blank. The percentage of proteinase inhibitory activity was then calculated. […]

Another experiment relates to caspase-3 in BJ-1 cells. The experiment can be described thus: Caspase-3 ELISA in treated BJ-1 cells. Particulars: BJ-1 cells treated at the IC50 value, mean ± SE, n = 3. Format: cell-based, human. As to the method:
Following the treatment of HepG-2, Caco-2, A549, and BJ-1 cells with the SB-CuO-NPs at their respective IC50 values, as illustrated in Figure 9 and detailed in Table 5, an assessment of the activities of the caspase-3 and Bcl-2 enzymes was conducted in the treated cells. […] This mechanism ultimately triggers apoptosis. Additionally, the increased activity of caspase-3 results in a decrease in the expression of cyclin D1 and CDK-2 mRNA, thereby promoting the arrest of the G1 phase of the cell cycle. Othman et al. further noted that the biosynthesized M-NPs facilitate apoptosis by inhibiting the expression of the PI3K/AKT and Ras/Raf/ERK protein signaling pathways.
Invitrogen Corporation, following the manufacturer's instructions.

Experiment [3] has as its target acetylcholinesterase (AChE) (Homo sapiens, UniProt P22303). The experiment can be described thus: biochemical. The conditions noted are these: mean ± SE, n = 3. As to the method: The absorbance was measured at 540 nm using a UV-Visible spectrophotometer. The IC50 of each tested sample was calculated by plotting a curve using a series of sample concentrations against the percent of α-amylase inhibition.
The inhibition percentage (%) of the α-glucosidase enzyme was determined using the […]
standard drug. Five μL of the α-glucosidase solution (10 units mL−1, 0.1moll−1 potassium phosphate buffer, pH 6.8) was pre -mixed with 10 μL of the sample solution at different concentrations (in 10% DMSO) i n 620 μL of 0.1 moll−1 potassium […]
phosphate buffer (pH 6.8). […]
phenyl glucopyranoside (pNPG, 10 mmoll−1) as a substrate was added to the mixture […]
minutes, followed by the addition of 650 μL of 1 moll−1 Na2CO3 solution to terminate the reaction. The amount of released product (p-nitro phenol) was measured at 410 […]
activity. The inhibition assay was performed in triplicate for all tests. The IC50 of each tested sample was calculated by plotting a curve using a series of sample concentrations against the percent of α-glucosidase inhibition.
3.4. Anti-Alzheimer's activity
In this study, we assessed the inhibition percentage of the acetylcholinesterase (AChE) enzyme using Ellman's method with donepezil as the standard drug. […] After incubation, 5 µL of AChE at a concentration of 0.3 U/mL was added to start the reaction, and the absorbance […]

By IC50 is commonly meant the concentration needed to halve the response being measured. Lower therefore signals inhibition by little substance.

acetylcholinesterase (AChE), sequence (P22303 32-614, species assumed): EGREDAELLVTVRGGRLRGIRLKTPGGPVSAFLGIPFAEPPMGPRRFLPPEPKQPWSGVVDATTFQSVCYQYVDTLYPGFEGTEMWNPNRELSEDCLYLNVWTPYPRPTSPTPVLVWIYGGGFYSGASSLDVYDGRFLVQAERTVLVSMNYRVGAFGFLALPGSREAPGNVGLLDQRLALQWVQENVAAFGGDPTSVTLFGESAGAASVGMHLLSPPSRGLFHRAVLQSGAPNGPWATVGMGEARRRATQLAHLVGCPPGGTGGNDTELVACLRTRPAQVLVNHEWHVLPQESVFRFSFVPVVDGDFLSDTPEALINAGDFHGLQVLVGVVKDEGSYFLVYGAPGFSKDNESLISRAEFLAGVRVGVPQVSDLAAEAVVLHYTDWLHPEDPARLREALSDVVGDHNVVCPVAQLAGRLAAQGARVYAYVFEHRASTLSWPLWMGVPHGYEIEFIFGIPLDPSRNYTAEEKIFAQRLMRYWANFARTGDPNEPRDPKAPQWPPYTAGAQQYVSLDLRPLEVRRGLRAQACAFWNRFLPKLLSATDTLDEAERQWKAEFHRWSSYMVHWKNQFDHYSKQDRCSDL
bovine serum albumin (BSA), sequence (P02769 25-607): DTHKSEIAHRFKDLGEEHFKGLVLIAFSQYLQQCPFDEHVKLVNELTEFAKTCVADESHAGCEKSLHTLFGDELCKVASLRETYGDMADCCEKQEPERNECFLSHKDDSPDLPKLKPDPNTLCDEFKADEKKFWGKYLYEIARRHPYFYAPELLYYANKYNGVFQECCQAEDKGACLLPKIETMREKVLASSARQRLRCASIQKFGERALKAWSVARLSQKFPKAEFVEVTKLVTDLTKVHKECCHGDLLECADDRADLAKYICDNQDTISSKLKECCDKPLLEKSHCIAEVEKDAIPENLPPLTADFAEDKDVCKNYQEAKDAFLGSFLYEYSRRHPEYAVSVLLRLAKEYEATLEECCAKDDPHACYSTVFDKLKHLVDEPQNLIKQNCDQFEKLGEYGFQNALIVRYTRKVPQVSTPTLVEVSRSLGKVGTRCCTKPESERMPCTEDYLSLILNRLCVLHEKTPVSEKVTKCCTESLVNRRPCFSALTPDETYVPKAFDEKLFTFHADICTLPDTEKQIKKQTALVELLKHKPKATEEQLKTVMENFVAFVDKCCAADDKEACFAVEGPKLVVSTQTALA

On to `Cc1nn(-c2ccccc2)c(Cl)c1C=NN=C1C(=O)Nc2ccccc21` [SB], for which the “Antioxidant activity IRP” value in experiment [1] turned out to be 47.66 ± 0.19 µg/mL. Also, the inhibition at 100 µg/mL in experiment [2] stood at 26.11 ± 0.13%; in experiment [3] (at 100 µg/mL, read-out: Acetylcholinesterase (AChE) Inhib. (%)), 32.64 ± 0.16%. The Caspase-3 with caspase-3 in BJ-1 cells amounted to 109.07 ± 0.18 pg/mL. Besides, the IC50 in experiment [3] is 19.2 µM.
